# In patent US9187467B2, “2-phenyl benzothiazole linked imidazole compounds as potential anticancer agents and process for the preparation thereof” (Council of Scientific and Industrial Research, priority 2012, dated 2015):
# Read-outs that look alike come from different tables or passages of the source.
# Legend:
# HL-60 (TB) = test: SRB anticancer assay, leukemia; format: cell-based, human; parameters: Log10GI50: unit not given here; settings: for GI50: Homo sapiens, HL-60, 48 h
# SR = test: SRB anticancer assay, leukemia; format: cell-based, human; settings: Homo sapiens, 48 h
# NCI-H226 = test: SRB anticancer assay, non-small lung; format: cell-based, human; settings: Homo sapiens, NCI-H226, 48 h
# NCI-H23 = test: SRB anticancer assay, non-small lung; format: cell-based, human; settings: for GI50: Homo sapiens, NCI-H23, 48 h
# NCI-H460 = test: SRB anticancer assay, non-small lung; format: cell-based, human; settings: Homo sapiens, NCI-H460, 48 h
# HCT-116 = test: SRB anticancer assay, colon; format: cell-based, human; settings: Homo sapiens, HCT-116, 48 h
# SNB-75 = test: SRB anticancer assay, CNS; format: cell-based, human; parameters: Log10GI50: unit not given here; settings: for GI50: Homo sapiens, SNB-75, 48 h
# U251 = test: SRB anticancer assay, CNS; format: cell-based, human; parameters: Log10GI50: unit not given here; settings: for GI50: Homo sapiens, U-251, U251, 48 h
# IGROV1 = test: SRB anticancer assay, ovarian; format: cell-based, human; settings: Homo sapiens, IGROV-1; IGROV1, 48 h
# OVCAR-3 = test: SRB anticancer assay, ovarian; format: cell-based, human; parameters: Log10GI50: unit not given here; settings: for GI50: Homo sapiens, OVCAR-3, 48 h
# OVCAR-4 = test: SRB anticancer assay, ovarian; format: cell-based, human; settings: Homo sapiens, OVCAR-4, 48 h
# NCI/ADR-RES = test: SRB anticancer assay, ovarian; format: cell-based, human; parameters: Log10GI50: unit not given here; settings: for GI50: Homo sapiens, NCI/ADR-RES, 48 h; for Log10GI50: present compounds
# A498 = test: SRB anticancer assay, renal; format: cell-based, human; parameters: Log10GI50: unit not given here; settings: for GI50: Homo sapiens, A498, 48 h
# SN12C = test: SRB anticancer assay, renal; format: cell-based, human; parameters: Log10GI50: unit not given here; settings: for GI50: Homo sapiens, 48 h
# UO-31 = test: SRB anticancer assay, renal; format: cell-based, human; parameters: Log10GI50: unit not given here; settings: for GI50: Homo sapiens, UO-31, 48 h
# T-47D = test: SRB anticancer assay, breast; format: cell-based; settings: Homo sapiens, T47D, 48 h
# Breast cancer cell lines = test: SRB anticancer assay, panel result; format: cell-based, human; settings: for mean graph midpoint value (MG_MID) of log10 TGI: total inhibition of net cell growth; for CC50 / GI50: Homo sapiens; for CC50: 50% net cell death, read-out: mean graph midpoint value (MG_MID) of Log10 LC50 (converted)
# How it was run: (§1)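 Each compound is profiled per cell line over five or more concentrations at tenfold spacing. Exposure lasts 48 h without washout, and the sulforhodamine B method quantifies cellular protein as a growth measure.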
# Colon cancer cell lines = test: SRB anticancer assay, panel result; format: cell-based, human; settings: for mean graph midpoint value (MG_MID) of log10 TGI: total inhibition of net cell growth; for LC50 / GI50: Homo sapiens; for LC50: 50% net cell death, read-out: mean graph midpoint value (MG_MID) of Log10 LC50 (converted)
# How it was run: as §1
# [1] = tested on: Melanoma cancer cell lines; test: SRB anticancer assay, panel result; format: cell-based, human; settings: for LC50 / GI50: Homo sapiens; for LC50: 50% net cell death, read-out: mean graph midpoint value (MG_MID) of Log10 LC50 (converted); for mean graph midpoint value (MG_MID) of log10 TGI: total inhibition of net cell growth
# How it was run: as §1
# [2] = tested on: Non-small cell lung cancer cell lines; test: SRB anticancer assay, panel result; format: cell-based, human; settings: for LC50 / GI50: Homo sapiens; for LC50: 50% net cell death, read-out: mean graph midpoint value (MG_MID) of Log10 LC50 (converted); for mean graph midpoint value (MG_MID) of log10 TGI: total inhibition of net cell growth
# How it was run: as §1
# [3] = tested on: Ovarian cancer cell lines; test: SRB anticancer assay, panel result; format: cell-based, human; settings: for LC50 / GI50: Homo sapiens; for LC50: 50% net cell death, read-out: mean graph midpoint value (MG_MID) of Log10 LC50 (converted); for mean graph midpoint value (MG_MID) of log10 TGI: total inhibition of net cell growth
# How it was run: as §1
# [4] = tested on: Prostate cancer cell lines; test: SRB anticancer assay, panel result; format: cell-based, human; settings: for LC50 / GI50: Homo sapiens; for LC50: 50% net cell death, read-out: mean graph midpoint value (MG_MID) of Log10 LC50 (converted); for mean graph midpoint value (MG_MID) of log10 TGI: total inhibition of net cell growth
# How it was run: as §1
# Renal cancer cell lines = test: SRB anticancer assay, panel result; format: cell-based, human; settings: for CC50 / GI50: Homo sapiens; for CC50: 50% net cell death, read-out: mean graph midpoint value (MG_MID) of Log10 LC50 (converted); for mean graph midpoint value (MG_MID) of log10 TGI: total inhibition of net cell growth
# How it was run: as §1
# K562 (Leukemia) cells = test: Cell cycle distribution by flow cytometry; format: cell-based
# Description: (§2) In order to investigate the mechanism underlying the anti-proliferative effect of the compounds the cell cycle distribution was analyzed in K562 (Leukemia) and MCF-7 (Breast carcinoma) cell lines by flow cytometry. Compounds CA-4, 21a, 21d, 4c, 6d, 6e, 6f, 7d, 7h and 7j have shown 1.72%, 14%, 12%, 14%, 12%, 14%, 14%, 16%, 16% &12% in K562 cells and 49.63%, 21%, 20%, 18%, 21%, 21%, 21%, 24%, 23% and 23% in MCF-7 cell line respectively. […] Thus compound 7d was considered for further studies (FIG. 1).
# [5] = tested on: MCF-7 (Breast carcinoma) cells; test: Cell cycle distribution by flow cytometry (FACS); format: cell-based; settings: MCF-7 cells, 2 μM, 24h
# Description: FIG. 1 represents FACS analysis of cell cycle distribution of MCF-7 cells after treatment with compounds CA-4, 21a, 21d, 4c, 6d, 6e, 6f, 7d, 7h and 7j at 2 μM concentration for 24h and control cells are the cells treated with DMSO (0.25%).
# as §2
# [6] = Breast panel, read-out: mean graph midpoint value (MG_MID) of Log10 GI50 (converted)
# [7] = six breast cancer cell lines, exposure at least 48 h, read-out: GI50, range over the panel
# [8] = Colon panel, read-out: mean graph midpoint value (MG_MID) of Log10 GI50 (converted)
# [9] = seven colon cancer cell lines, exposure at least 48 h, read-out: GI50, range over the panel
# [10] = Melanoma panel, read-out: mean graph midpoint value (MG_MID) of Log10 GI50 (converted)
# [11] = nine melanoma cancer cell lines, exposure at least 48 h, read-out: GI50, range over the panel
# [12] = Non-small cell lung panel, read-out: mean graph midpoint value (MG_MID) of Log10 GI50 (converted)
# [13] = nine Non-small cell lung cancer cell lines, exposure at least 48 h, read-out: GI50, range over the panel
# [14] = Ovarian panel, read-out: mean graph midpoint value (MG_MID) of Log10 GI50 (converted)
# [15] = seven ovarian cancer cell lines, exposure at least 48 h, read-out: GI50, range over the panel
# [16] = Prostate panel, read-out: mean graph midpoint value (MG_MID) of Log10 GI50 (converted)
# [17] = two prostate cancer cell lines (PC-3, DU-145), exposure at least 48 h, read-out: GI50, range over the panel
# [18] = Renal panel, read-out: mean graph midpoint value (MG_MID) of Log10 GI50 (converted)
# [19] = eight renal cancer cell lines, exposure at least 48 h, read-out: GI50, range over the panel
smiles,measurement,setting,value
"COc1cc2nc(-c3ccc(-n4cncc4-c4ccc(N)cc4)cc3)sc2c(OC)c1OC [Compound 7h, 4-(1-(4-(5,6,7-Trimethoxybenzo[d]thiazol-2-yl)phenyl)-1H-imidazol-5-yl)benzenamine]",Log10GI50,"HL-60 (TB); HL-60(TB), present compounds",−6.00
same,GI50,HL-60 (TB),0.989 µM
same,GI50,SR,1.4 µM
same,GI50,NCI-H226,4.73 µM
same,GI50,NCI-H23,3.87 µM
same,Log10GI50,"NCI-H23; NCI-H23, present compounds",−5.41 log10(M)
same,GI50,NCI-H460,5.13 µM
same,GI50,HCT-116,3.81 µM
same,GI50,SNB-75,5.94 µM
same,Log10GI50,"SNB-75; SNB-75, present compounds",−5.23
same,GI50,U251,3.84 µM
same,Log10GI50,"U251; U251, present compounds",−5.42
same,GI50,IGROV1,2.63 µM
same,GI50,OVCAR-3,2.73 µM
same,Log10GI50,"OVCAR-3; OVCAR-3, present compounds",−5.56
same,GI50,OVCAR-4,3.6 µM
same,GI50,NCI/ADR-RES,1.61 µM
same,Log10GI50,NCI/ADR-RES; NCI/ADR-RES (row head NCI/ADR-),−5.79
same,Log10GI50,NCI/ADR-RES; listed as head printed RES (second line of NCI/ADR-RES),−4.93
same,Log10GI50,"A498; A498, present compounds",−5.67
same,GI50,A498,2.13 µM
same,GI50,SN12C,8.95 µM
same,Log10GI50,SN12C; present compounds,−5.05
same,GI50,UO-31,1.55 µM
same,Log10GI50,"UO-31; UO-31, present compounds",−5.81
same,GI50,T-47D,1.82 µM
same,mean graph midpoint value (MG_MID) of log10 TGI,Breast cancer cell lines; Breast panel,−4.47
same,CC50,Breast cancer cell lines; Breast panel,> 100 µM
same,GI50,Breast cancer cell lines; [6],2.82 µM
same,GI50,Breast cancer cell lines; [7],1.59 to 5.36 µM
same,mean graph midpoint value (MG_MID) of log10 TGI,Colon cancer cell lines; Colon panel,>−4.0
same,LC50,Colon cancer cell lines; Colon panel,> 100 µM
same,GI50,Colon cancer cell lines; [8],3.31 µM
same,GI50,Colon cancer cell lines; [9],2.79 to 3.81 µM
same,LC50,[1]; Melanoma panel,97.7 µM
same,GI50,[1]; [10],4.79 µM
same,GI50,[1]; [11],0.71 to 6.4 µM
same,mean graph midpoint value (MG_MID) of log10 TGI,[1]; Melanoma panel,−4.13
same,LC50,[2]; Non-small cell lung panel,93.3 µM
same,GI50,[2]; [12],2.57 µM
same,GI50,[2]; [13],0.446 to 5.13 µM
same,mean graph midpoint value (MG_MID) of log10 TGI,[2]; Non-small cell lung panel,−4.54
same,LC50,[3]; Ovarian panel,89.1 µM
same,GI50,[3]; [14],5.01 µM
same,GI50,[3]; [15],1.61 to 34.3 µM
same,mean graph midpoint value (MG_MID) of log10 TGI,[3]; Ovarian panel,−4.56
same,LC50,[4]; Prostate panel,> 100 µM
same,GI50,[4]; [16],4.68 µM
same,GI50,[4]; [17],3.02 to 7.25 µM
same,mean graph midpoint value (MG_MID) of log10 TGI,[4]; Prostate panel,−4.15
same,CC50,Renal cancer cell lines; Renal panel,95.5 µM
same,GI50,Renal cancer cell lines; [18],3.89 µM
same,GI50,Renal cancer cell lines; [19],1.41 to 8.95 µM
same,mean graph midpoint value (MG_MID) of log10 TGI,Renal cancer cell lines; Renal panel,−4.38
same,cells in G2/M phase,K562 (Leukemia) cells,16%
same,cells in G2/M phase,[5],23%
"COc1cc(OC)c2sc(-c3ccc(-n4cncc4-c4cc(OC)c(OC)c(OC)c4)cc3)nc2c1 [Compound 6f, 5,7-Dimethoxy-2-(4-(5-(3,4,5-trimethoxyphenyl)-1H-imidazol-1-yl)phenyl)benzo[d]thiazole]",GI50,HL-60 (TB),3.3 µM
same,GI50,SR,3.24 µM
same,GI50,NCI-H23,6.15 µM
same,GI50,NCI-H460,4.67 µM
same,GI50,HCT-116,3.92 µM
same,GI50,SNB-75,6.47 µM
same,GI50,U251,4.15 µM
same,GI50,IGROV1,5.87 µM
same,GI50,OVCAR-3,3.26 µM
same,GI50,OVCAR-4,3.25 µM
same,GI50,NCI/ADR-RES,5.65 µM
same,GI50,A498,1.83 µM
same,GI50,SN12C,> 100 µM
same,GI50,UO-31,2.27 µM
same,GI50,T-47D,3.27 µM
same,mean graph midpoint value (MG_MID) of log10 TGI,Breast cancer cell lines; Breast panel,>−4.0
same,CC50,Breast cancer cell lines; Breast panel,> 100 µM
same,GI50,Breast cancer cell lines; [6],3.8 µM
same,GI50,Breast cancer cell lines; [7],3.27 to 5.23 µM
same,mean graph midpoint value (MG_MID) of log10 TGI,Colon cancer cell lines; Colon panel,>−4.0
same,LC50,Colon cancer cell lines; Colon panel,> 100 µM
same,GI50,Colon cancer cell lines; [8],7.41 µM
same,GI50,Colon cancer cell lines; [9],3.92 to 5.96 µM
same,LC50,[1]; Melanoma panel,> 100 µM
same,GI50,[1]; [10],6.61 µM
same,GI50,[1]; [11],2.46 to 7.91 µM
same,mean graph midpoint value (MG_MID) of log10 TGI,[1]; Melanoma panel,>−4.0
same,LC50,[2]; Non-small cell lung panel,> 100 µM
same,GI50,[2]; [12],11.2 µM
same,GI50,[2]; [13],3.27 to 75.9 µM
same,mean graph midpoint value (MG_MID) of log10 TGI,[2]; Non-small cell lung panel,>−4.0
same,LC50,[3]; Ovarian panel,> 100 µM
same,GI50,[3]; [14],16.6 µM
same,GI50,[3]; [15],3.25 to 5.87 µM
same,mean graph midpoint value (MG_MID) of log10 TGI,[3]; Ovarian panel,>−4.0
same,LC50,[4]; Prostate panel,> 100 µM
same,GI50,[4]; [16],16.2 µM
same,GI50,[4]; [17],2.54 µM
same,mean graph midpoint value (MG_MID) of log10 TGI,[4]; Prostate panel,>−4.0
same,CC50,Renal cancer cell lines; Renal panel,> 100 µM
same,GI50,Renal cancer cell lines; [18],6.61 µM
same,GI50,Renal cancer cell lines; [19],1.83 to 9.4 µM
same,mean graph midpoint value (MG_MID) of log10 TGI,Renal cancer cell lines; Renal panel,>−4.0
same,cells in G2/M phase,K562 (Leukemia) cells,14%
same,cells in G2/M phase,[5],21%
